Results reported in patent US11059800B2, “Dehydroleucodine derivatives and uses thereof” (Bioventures, LLC, priority 2013, dated 2021).
Entries after “also recorded” stand apart in the source; their conditions may differ.

How the values were obtained:
[1] = tested on: U251; assay: Single dose tumor cell growth inhibition, CNS Cancer U251; format: cell-based, human; settings: U251, single dose 10 μM
Description: (§1) DHL is cytotoxic to various leukemia, colon cancer, CNS cancer and prostate cancer cell lines.

[2] = tested on: CCRF-CEM; assay: Single dose tumor cell growth inhibition, Leukemia CCRF-CEM; format: cell-based; settings: single dose 10 μM
Description: as §1

[3] = tested on: Kasumi-1; assay: Cytotoxicity, annexin V/7-AAD viability by flow cytometry, Kasumi-1; format: cell-based, human; settings: Kasumi-1, 48 hours, drug range tested 1.25-160 μM
Method: (§2) In order to assess the structure-activity relationship of DHL and its derivatives, DHL and its derivatives were evaluated against eight human leukemia cell lines. Cell lines were cultured in Iscove's Modified Dulbecco's Medium (IMDM) supplemented with 10%˜20% fetal bovine serum (FBS) according to culture conditions indicated by ATCC and 1% penicillin/streptomycin (Pen/Strep) at 37° C. and 5% CO2. The cells were seeded into 96-well plates and kept at a concentration of 0.5 million cells per mL. The samples were treated with DHL, Leucodine, DHL-Morpholine, DHL-Proline, DHL-Piperidine, and PTL at varying concentrations in triplicates. Cell viability was determined after incubating for 48 hours. The cells were stained with annexin V-fluorescein isothiocyanate or phycoeritrine (FITC/PE) and 7-aminoactinomycin (7-AAD) to detect phosphatidylserine exposition and cell permeability, respectively. At least 50,000 events were recorded per condition on either an LSR-II or LSR-Fortessa flow cytometer (BD Biosciences). Data analysis was conducted using FlowJo 9.6 software for Mac OS X (TreeStar). Cells that were negative for annexin V and 7-AAD were scored as viable.

[4] = tested on: DU-145; assay: Single dose tumor cell growth inhibition, Prostate Cancer DU-145; format: cell-based, human; settings: DU-145, single dose 10 μM
Description: as §1

[5] = tested on: U-937; assay: Cytotoxicity, annexin V/7-AAD viability by flow cytometry, U-937; format: cell-based, human; settings: U-937, 48 hours, drug range tested 1.25-160 μM
Method: as §2

[6] = tested on: HL-60; assay: Cytotoxicity, annexin V/7-AAD viability by flow cytometry, HL-60; format: cell-based, human; settings: HL-60, 48 hours, drug range tested 1.25-160 μM
Method: as §2

[7] = tested on: MOLM-13; assay: Cytotoxicity, annexin V/7-AAD viability by flow cytometry, MOLM-13; format: cell-based, human; settings: MOLM-13, 48 hours, drug range tested 1.25-160 μM
Method: as §2

[8] = tested on: NCI-H322M; assay: Single dose tumor cell growth inhibition, Non-Small Cell Lung Cancer NCI-H322M; format: cell-based; settings: single dose 10 μM
Description: as §1

[9] = tested on: PC-3; assay: Single dose tumor cell growth inhibition, Prostate Cancer PC-3; format: cell-based, human; settings: PC-3, single dose 10 μM
Description: as §1

[10] = tested on: SK-OV-3; assay: Single dose tumor cell growth inhibition, Ovarian Cancer SK-OV-3; format: cell-based; settings: SK-OV-3, single dose 10 μM
Description: as §1

[11] = tested on: MV4-11; assay: Cytotoxicity, annexin V/7-AAD viability by flow cytometry, MV4-11; format: cell-based, human; settings: MV4-11, 48 hours, drug range tested 1.25-160 μM
Method: as §2

[12] = tested on: NCI/ADR-RES; assay: Single dose tumor cell growth inhibition, Ovarian Cancer NCI/ADR-RES; format: cell-based; settings: single dose 10 μM
Description: as §1

[13] = tested on: RPMI-8226; assay: Single dose tumor cell growth inhibition, Leukemia RPMI-8226; format: cell-based; settings: RPMI-8226, single dose 10 μM
Description: as §1

[14] = tested on: HMOX-1, HSPA1A, HSPH1; assay: Real-time PCR gene expression in KG-1 and MOLM-13 cells; format: cell-based; settings: 20 μM, 6 hours
Description: FIG. 1A, FIG. 1B, FIG. 1C, FIG. 1D and FIG. 1E present the changes in gene expression in KG1 or MOLM13 cells after exposure to dehydroleucodine, parthenolide, or derivatives thereof. Plotted is the fold change in expression relative to control after treatment with parthenolide-tyramine (PTL-Tyr), parthenolide (PTL), leucodine (Leuco), dehydroleucodine (DHL), dehydroleucodine-tyramine (DHL-Tyr), or dehydroleucodine-morpholine (DHL-Morp). […] FIG. 1B plots the expression of HSPA1A in KG1 cells. FIG. 1C presents the expression of HSPH1 in KG1 cells. […] FIG. 1E presents the expression of HSPH1 in MOLM13 cells. Error bars represent S.E.M.
MOLM-13 and KG-1 cells were seeded at 0.5 million cells per ml. Cells were treated for 6 hours with 20 μM of parthenolide (PTL), dehydroleucodine (DHL), leucodine (Leu), parthenolide-tyramine (PTL-Tyr), dehydroleucodine-tyramine (DHL-Tyr) and dehydroleucodine-Morpholine (DHL-Morp), and then collected. Total RNA was extracted using the Qiashredder and Qiagen Rneasy mini kits (Quiagen) according to the manufacturer's instructions. Real-time PCR was performed using the Taqman RNA to CT 1-Step kit (Applied Biosystems). […] Single-plex real-time PCR was performed in triplicates in a StepOne plus RealTime PCR system (Applied Biosystems) and analyzed with the StepOne Software. Fold change was calculated using the 2-DDCT method.

[15] = tested on: HOP-62; assay: Single dose tumor cell growth inhibition, Non-Small Cell Lung Cancer HOP-62; format: cell-based; settings: HOP-62, single dose 10 μM
Description: as §1

[16] = tested on: KG-1; assay: Cytotoxicity, annexin V/7-AAD viability by flow cytometry, KG-1; format: cell-based, human; settings: KG-1, 48 hours, drug range tested 1.25-160 μM
Method: In order to assess the structure-activity relationship of DHL and its derivatives, DHL and its derivatives were evaluated against eight human leukemia cell lines. Cell lines were cultured in Iscove's Modified Dulbecco's Medium (IMDM) supplemented with 10%˜20% fetal bovine serum (FBS) according to culture conditions indicated by ATCC and 1% penicillin/streptomycin (Pen/Strep) at 37° C. and 5% CO2. […] Cell viability was determined after incubating for 48 hours.

[17] = Log P octanol/water; format: physicochemical; settings: experimentally determined

For `C=C1C(=O)O[C@@H]2[C@H]3C(C)=CC(=O)C3=C(C)CC[C@@H]12` [DHL, dehydroleucodine], the Percent inhibition [1] was 30.0%, the Percent inhibition [2] was 44.9% and the LD50 [3] was 12.92 µM. For the same compound, the Percent inhibition [4] was 44.0%, the LD50 [5] was 18.95 µM and the LD50 [6] was 14.13 µM. It also gave an LD50 [7] of 12.59 µM, a Percent inhibition [8] of 0.0% and a Percent inhibition [9] of 38.6%. It also gave a Percent inhibition [10] of 0.0%, an LD50 [11] of 5.02 µM and a Percent inhibition [12] of 0.0%. For the same compound, the Percent inhibition [13] was 31.7%, the “expression of HMOX-1, HSPA1A and HSPH1” value [14] was “activated the expression of all three target genes in both cell lines; also recorded: more potent than PTL” and the Percent inhibition [15] was 0.0%. For the same compound, the LD50 [16] was 18.66 µM and the “Log P octanol/water” value [17] was 2.33 (±0.16).
